{"source": "patent US20220411397A1", "about": "“ANALOGUES OF N-ACYL-HOMOSERINE LACTONES AND PHARMACEUTICAL COMPOSITION COMPRISING SAME” (SORBONNE UNIVERSITE, priority 2019, published 2022)", "test_system": "human lymphocytes", "assay": "Inhibition of IL-2 secretion by human lymphocytes stimulated by CD2, CD3 and CD28", "type": "cell-based", "settings": "lymphocytes stimulated by CD2, CD3 and CD28"}
{"compound": "CCCCCCCCCC(=O)CC(=O)N[C@H]1CCCC[C@@H]1O", "note": "[I-2, N-[(1S,2S)-2-hydroxycyclohexyl]-3-oxo-dodecanamide]", "values": [{"measurement": "EC50", "setting": "Homo sapiens, Lymphocyte, read-out: relative EC50, inhibition of IL-2 secretion", "result": 89.9, "unit": "nM"}, {"measurement": "maximum inhibition as % of the inhibition obtained with the reference compound betamethasone", "setting": "IL-2 secretion", "result": 46, "unit": "%"}]}
